Experiments:
[1] = system: SPI1 type III protein secretion system (SopE'-'Bla secretion); assay: Primary assay: Type III protein secretion of the chimeric SopE'-'Bla polypeptide by Salmonella enterica; assay type: cell-based; details: read-out: SopE IC50
From the text: Primary assay: Type III protein secretion of the chimeric SopE′-'Bla polypeptide by Salmonella enterica. This procedure is a cell-based assay that measures the type III-dependent secretion by Salmonella enterica of a plasmid-encoded chimeric polypeptide whose synthesis can be regulated, and which is endowed with an enzymatic activity that can be monitored […] by hydrolysis of a substrate that is unable to penetrate into the bacterial cytoplasm within the time constraints of the reaction. Thus, the colorimetric reaction is not influenced by SopE′-'Bla polypeptide in the bacterial cytoplasm. Instead, it effectively measures the amount of polypeptide that has been secreted from the S. enterica cytoplasm to the extracellular medium via type III system protein secretion.
The SopE′-' Bla recombinant polypeptide consists of two functionally distinct domains spliced together. The N-terminus domain is encoded by a polynucleotide region specifying the signal for type III secretion of the SopE polypeptide of S. enterica, an effector of the SPI1 type III protein secretion system. The C-terminus domain of SopE′-'Bla consists of a 263 amino acid peptide sequence that corresponds to the TEM-1 β-lactamase expressed by plasmid pBR322 but without its N-terminal signal sequence. The TEM-1 β-lactamase part of the SopE′-'Bla chimeric polypeptide is used as a reporter enzyme. It is capable of hydrolyzing nitrocefin resulting in a product whose accumulation can be monitored by colorimetric detection. The secretion of the SopE′-'Bla chimeric polypeptide from the cytoplasm to the extracellular medium is dependent on type III protein secretion.
For this procedure, cells grown under conditions known to favor a functional SPI1 secretion system are induced for expression of the SopE′-'Bla protein and grown either in the presence or in the absence of putative inhibitors for determined time. Nitrocefin is then added to the various cultures and its hydrolysis are used for quantitation. An inhibitor of Type III protein secretion is generally a compound that reduces the signal of the enzymatic reaction by decreasing the amount of SopE′-'Bla secreted into the extracellular medium.

[2] = system: type III protein secretion system of P. aeruginosa PA103 (ExoU secretion); assay: Tertiary assay: Type III-dependent secretion of ExoU by P. aeruginosa PA103; assay type: cell-based; details: Pseudomonas aeruginosa; for IC50: ExoU secreted into extracellular medium; for inhibition at 100 µM: ExoU Conc 100 μM, read-out: ExoU % Inh
From the text: Tertiary assay: inhibition of Type III protein secretion of effectors from a Pseudomonas aeruginosa system. Type III protein secretion is used by P. aeruginosa to secrete several essential virulence determinants. One effector of the type III protein secretion system of P. aeruginosa PA103 is the virulence determinants ExoU.
The amount of Type III-dependent secretion of ExoU by P. aeruginosa PA103 can be determined in a cell-based assay by quantification of the 73.9 kDa ExoU protein scereted into the extracellular medium. Such quantitation can be achieved by growing strain PA103 in a deferrated medium in the presence of nitrilotriacetic acid (an inducer of Type III protein secretion in P. aeruginosa) and either in the presence or absence of putative inhibitors. After a prolonged growth period, the cells are sedimented and the supernatants concentrated by ammonium sulfate precipitation. The proteins in the resuspended pellets are separated by electrophoresis on SDS-polyacrylamide gels. After staining gels with Colloidal Blue™, the 73.9 kDa ExoU band is quantitated by scanning through an imager. The effects of inhibitors on the intensity of the ExoU band may be measured relative to that of untreated controls.

Compound | IC50 [2] | other results
O=C(N[C@@H](CSCc1ccccc1)C(=O)O)c1nc(-c2ccc(C(F)(F)F)cc2)sc1-c1ccc(-c2ccccc2)cc1 [Compound 2, (R)-3-Benzylsulfanyl-2-{[5-biphenyl-4-yl-2-(4-trifluoromethylphenyl)thiazole-4-carbonyl]amino}propionic acid] | – | IC50 [1]: 16.5 µM
O=C(N[C@@H](COCc1ccccc1)C(=O)O)c1nc(-c2ccc(-c3ccccc3)cc2)oc1-c1ccc(Cl)c(Cl)c1 [Compound 6, (S)-3-Benzyloxy-2-{[2-biphenyl-4-yl-5-(3,4-dichlorophenyl)oxazole-4-carbonyl]amino}propionic acid] | – | IC50 [1]: 25.6 µM
O=C(N[C@@H](CSCc1ccccc1)C(=O)O)c1nc(-c2ccc(C(F)(F)F)cc2)oc1-c1cnc2ccccc2n1 [Compound 11, (R)-3-Benzylsulfanyl-2-{[5-quinoxalin-2-yl-2-(4-trifluoromethylphenyl)oxazole-4-carbonyl]amino}propionic acid] | – | IC50 [1]: 42.2 µM
O=C(N[C@@H](CSCc1ccccc1)C(=O)O)c1nc(-c2ccc(C(F)(F)F)cc2)oc1-c1ccc(-c2ccsc2)cc1 [Compound 20, (R)-3-Benzylsulfanyl-2-{[5-(4-thien-3-yl-phenyl)-2-(4-trifluoromethylphenyl)oxazole-4-carbonyl]amino}propionic acid] | – | IC50 [1]: 3.3 µM
O=C(N[C@@H](COCc1ccccc1)C(=O)O)c1nc(-c2ccc(-c3ccsc3)cc2)oc1-c1ccc(Cl)c(Cl)c1 [Compound 52, (S)-3-Benzyloxy-2-{[5-(3,4-dichlorophenyl)-2-(4-thien-3-yl-phenyl)oxazole-4-carbonyl]amino}propionic acid] | 56.4 µM | –
O=C(N[C@@H](COCc1ccccc1)C(=O)O)c1nc(-c2ccc(C(F)(F)F)cc2)oc1-c1cnc2ccccc2n1 [Compound 53, (S)-3-Benzyloxy-2-{[5-quinoxalin-2-yl-2-(4-trifluoromethylphenyl)oxazole-4-carbonyl]amino}propionic acid] | 64.6 µM | –
O=C(NC(Cc1ccc(Cl)cc1)C(=O)O)c1nc(-c2ccc(C(F)(F)F)cc2)oc1C1CCN(c2nccc(C(F)(F)F)n2)CC1 (centres unmarked) [Compound 55, 3-(4-Chlorophenyl)-2-({2-(4-trifluoromethylphenyl)-5-[1-(4-trifluoromethylpyrimidin-2-yl)piperidin-4-yl]oxazole-4-carbonyl}amino)propionic acid] | 51.7 µM | –
O=C(N[C@@H](CSCc1ccccc1)C(=O)O)c1nc(-c2ccc(C(F)(F)F)cc2)oc1C1CCN(c2nccc(C(F)(F)F)n2)CC1 [Compound 57, (R)-3-Benzylsulfanyl-2-({2-(4-trifluoromethylphenyl)-5-[1-(4-trifluoromethylpyrimidin-2-yl)piperidin-4-yl]oxazole-4-carbonyl}amino)propionic acid] | 50 µM | –
O=C(NC(Cc1ccc(Cl)cc1)C(=O)O)c1nc(-c2ccc(C(F)(F)F)cc2)oc1-c1ccc(-c2ccccc2)cc1 (centres unmarked) [Compound 59, 2-{[5-Biphenyl-4-yl-2-(4-trifluoromethylphenyl)oxazole-4-carbonyl]amino}-3-(4-chlorophenyl)propionic acid] | – | inhibition at 100 µM [2]: 84.1%
O=C(NC(Cc1ccc(Cl)cc1)C(=O)O)c1nc(-c2ccc(-c3ccccc3)cc2)oc1-c1cccc(C(F)(F)F)c1 (centres unmarked) [Compound 60, 2-{[2-Biphenyl-4-yl-5-(3-trifluoromethylphenyl)oxazole-4-carbonyl]amino}-3-(4-chlorophenyl)propionic acid] | – | inhibition at 100 µM [2]: 90.2%
O=C(N[C@@H](COCc1ccccc1)C(=O)O)c1nc(-c2ccc(-c3ccccc3)cc2)oc1-c1ccc(Cl)cc1Cl [Compound 61, (S)-3-Benzyloxy-2-{[2-biphenyl-4-yl-5-(2,4-dichlorophenyl)oxazole-4-carbonyl]amino}propionic acid] | 66.1 µM | –
O=C(N[C@@H](COCc1ccccc1)C(=O)O)c1nc(-c2ccc(-c3ccccc3)cc2)oc1-c1cccc(C(F)(F)F)c1 [Compound 62, (S)-3-Benzyloxy-2-{[2-biphenyl-4-yl-5-(3-trifluoromethylphenyl)oxazole-4-carbonyl]amino}propionic acid] | 50.5 µM | –
O=C(N[C@@H](COCc1ccccc1)C(=O)O)c1nc(-c2ccc(C(F)(F)F)cc2)oc1-c1ccc(-c2ccccc2)cc1 [Compound 63, (S)-3-Benzyloxy-2-{[5-biphenyl-4-yl-2-(4-trifluoromethylphenyl)oxazole-4-carbonyl]amino}propionic acid] | 37.3 µM | –
O=C(N[C@H](Cc1ccc(Cl)cc1)C(=O)O)c1nc(-c2cccc3ccccc23)oc1-c1ccc(C(F)(F)F)nc1 [Compound 64, (R)-3-(4-Chlorophenyl)-2-{[2-naphthalen-1-yl-5-(6-trifluoromethylpyridin-3-yl)oxazole-4-carbonyl]amino}propionic acid] | 51.4 µM | –
O=C(N[C@@H](CSCc1ccccc1)C(=O)O)c1nc(-c2cccc3ccccc23)oc1-c1ccc(C(F)(F)F)nc1 [Compound 65, (R)-3-Benzylsulfanyl-2-{[2-naphthalen-1-yl-5-(6-trifluoromethylpyridin-3-yl)oxazole-4-carbonyl]amino}propionic acid] | 53.1 µM | –
Cc1nc(-c2ccc(-c3oc(-c4ccc(C(F)(F)F)cc4)nc3C(=O)N[C@@H](COCc3ccccc3)C(=O)O)cc2)no1 [Compound 66, (S)-3-Benzyloxy-2-{[5-[4-(5-methyl[1,2,4]oxadiazol-3-yl)phenyl]-2-(4-trifluoromethylphenyl)oxazole-4-carbonyl]amino}propionic acid] | 12.5 µM | –
Cc1nc(-c2ccc(-c3oc(-c4ccc(C(F)(F)F)cc4)nc3C(=O)N[C@H](Cc3ccc(Cl)cc3)C(=O)O)cc2)no1 [Compound 67, 3-(4-Chlorophenyl)-2-{[5-[4-(5-methyl[1,2,4]oxadiazol-3-yl)phenyl]-2-(4-trifluoromethylphenyl)oxazole-4-carbonyl]amino}propionic acid] | 12.5 µM | –
O=C(N[C@@H](COCc1ccccc1)C(=O)O)c1nc(-c2ccc(-c3ccccc3)cc2)nn1-c1ccc(Cl)c(Cl)c1 [Compound 68, (S)-3-Benzyloxy-2-{[5-biphenyl-4-yl-2-(3,4-dichlorophenyl)-2H-[1,2,4]triazole-3-carbonyl]amino}propionic acid] | 39.2 µM | –
O=C(NC(Cc1ccc(Cl)cc1)C(=O)O)c1nc(-c2ccc(-c3ccccc3)cc2)nn1-c1ccc(Cl)c(Cl)c1 (centres unmarked) [Compound 69, 2-{[5-Biphenyl-4-yl-2-(3,4-dichlorophenyl)-2H-[1,2,4]triazole-3-carbonyl]amino}-3-(4-chlorophenyl)propionic acid] | 32.4 µM | –
O=C(N[C@@H](C[S+]([O-])Cc1ccccc1)C(=O)O)c1nc(-c2ccc(-c3ccccc3)cc2)nn1-c1ccc(Cl)c(Cl)c1 (stereo partly drawn) [Compound 70, (R)-2-{[5-Biphenyl-4-yl-2-(3,4-dichlorophenyl)-2H-[1,2,4]triazole-3-carbonyl]amino}-3-phenylmethanesulfinylpropionic acid] | 25.5 µM | –
O=C(N[C@H](COCc1ccccc1)C(=O)O)c1nc(-c2ccc(-c3ccccc3)cc2)oc1-c1cccc(C(F)(F)F)c1 [Compound 71, (R)-3-Benzyloxy-2-{[2-biphenyl-4-yl-5-(3-trifluoromethylphenyl)oxazole-4-carbonyl]amino}propionic acid] | 45.3 µM | –
O=C(N[C@H](COCc1ccccc1)C(=O)O)c1nc(-c2ccc(C(F)(F)F)cc2)oc1-c1ccc(-c2ccccc2)cc1 [Compound 72, (R)-3-Benzyloxy-2-{[5-biphenyl-4-yl-2-(4-trifluoromethylphenyl)oxazole-4-carbonyl]amino}propionic acid] | 54.8 µM | –
O=C(N[C@@H](Cc1ccc(Cl)cc1)C(=O)O)c1nc(-c2ccc(C(F)(F)F)cc2)oc1-c1ccc(-c2ccccc2)cc1 [Compound 73, (S)-2-{[5-Biphenyl-4-yl-2-(4-trifluoromethylphenyl)oxazole-4-carbonyl]amino}-3-(4-chlorophenyl)propionic acid] | 56.1 µM | –
